Key:
DDR2 = DDR2 (Homo sapiens (Human), UniProt Q16832); experiment: DDR2 LanthaScreen Europium Kinase Binding assay; details: binding; 5 nM DDR2, 10 nM Kinase Tracer 178, 1 hour at rt; Ki from IC50 by Cheng-Prusoff; read-out: Ki DDR2
Description: (§1) DDR1 and DDR2 binding assays were performed using Life Technologies LanthaScreen™ Europium Kinase Binding assay. The compounds were incubated with 5 nM DDR1 (Carna Biosciences) or 5 nM DDR2 (Life Technologies) for 1 hour at rt in white 384-well OptiPlate (PerkinElmer), containing 20 nM or 10 nM Kinase Tracer 178 respectively and 2 nM Europium labelled anti-GST antibody (Life Technologies) in assay buffer (50 mM HEPES pH 7.5, 10 mM MgCI2, 1 mM EGTA and 0.01% BRIJ35). The ratio of fluorescence emission 665 nm/615 nm after excitation at 340 nm was obtained using the Tecan Spark 20M plate reader. IC50 values were determined in GraphPad Prism 7.0 software, using 4 parameter model: log(inhibitor) vs. response. IC50 values were converted in Ki using the Cheng-Prusoff equation (Ki=IC50/(1+[Tracer]/Kd).
(§2) Compounds C1 and C2 were tested in the same binding assay described above.

DDR1 = DDR1 (Homo sapiens (Human), UniProt Q08345); experiment: DDR1 LanthaScreen Europium Kinase Binding assay; details: binding; 5 nM DDR1, 20 nM Kinase Tracer 178, 1 hour at rt; Ki from IC50 by Cheng-Prusoff; read-out: Ki DDR1
Description: as §1, §2

Chain of DDR1 (Q08345 19-913): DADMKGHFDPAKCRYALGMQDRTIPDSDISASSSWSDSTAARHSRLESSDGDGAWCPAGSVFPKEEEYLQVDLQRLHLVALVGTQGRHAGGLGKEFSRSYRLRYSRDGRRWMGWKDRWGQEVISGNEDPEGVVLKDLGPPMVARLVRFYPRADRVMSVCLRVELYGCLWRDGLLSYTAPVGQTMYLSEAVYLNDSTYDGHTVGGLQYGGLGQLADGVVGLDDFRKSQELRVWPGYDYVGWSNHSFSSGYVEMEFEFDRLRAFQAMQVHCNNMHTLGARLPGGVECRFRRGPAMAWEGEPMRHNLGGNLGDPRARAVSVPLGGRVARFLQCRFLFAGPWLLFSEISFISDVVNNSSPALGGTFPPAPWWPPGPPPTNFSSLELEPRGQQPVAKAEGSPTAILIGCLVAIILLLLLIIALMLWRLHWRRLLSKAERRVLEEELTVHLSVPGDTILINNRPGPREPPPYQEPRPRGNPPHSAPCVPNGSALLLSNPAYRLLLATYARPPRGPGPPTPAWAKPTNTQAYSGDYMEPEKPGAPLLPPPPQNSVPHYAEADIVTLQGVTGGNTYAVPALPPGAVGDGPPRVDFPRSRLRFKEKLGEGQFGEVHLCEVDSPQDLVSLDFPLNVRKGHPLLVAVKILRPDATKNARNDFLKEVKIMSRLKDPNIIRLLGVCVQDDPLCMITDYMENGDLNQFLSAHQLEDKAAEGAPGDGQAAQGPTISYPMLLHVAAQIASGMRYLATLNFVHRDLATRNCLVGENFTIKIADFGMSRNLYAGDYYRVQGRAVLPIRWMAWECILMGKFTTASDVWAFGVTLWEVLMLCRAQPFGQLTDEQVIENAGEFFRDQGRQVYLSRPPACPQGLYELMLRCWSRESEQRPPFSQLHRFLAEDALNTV
Chain of DDR2 (Q16832 22-855): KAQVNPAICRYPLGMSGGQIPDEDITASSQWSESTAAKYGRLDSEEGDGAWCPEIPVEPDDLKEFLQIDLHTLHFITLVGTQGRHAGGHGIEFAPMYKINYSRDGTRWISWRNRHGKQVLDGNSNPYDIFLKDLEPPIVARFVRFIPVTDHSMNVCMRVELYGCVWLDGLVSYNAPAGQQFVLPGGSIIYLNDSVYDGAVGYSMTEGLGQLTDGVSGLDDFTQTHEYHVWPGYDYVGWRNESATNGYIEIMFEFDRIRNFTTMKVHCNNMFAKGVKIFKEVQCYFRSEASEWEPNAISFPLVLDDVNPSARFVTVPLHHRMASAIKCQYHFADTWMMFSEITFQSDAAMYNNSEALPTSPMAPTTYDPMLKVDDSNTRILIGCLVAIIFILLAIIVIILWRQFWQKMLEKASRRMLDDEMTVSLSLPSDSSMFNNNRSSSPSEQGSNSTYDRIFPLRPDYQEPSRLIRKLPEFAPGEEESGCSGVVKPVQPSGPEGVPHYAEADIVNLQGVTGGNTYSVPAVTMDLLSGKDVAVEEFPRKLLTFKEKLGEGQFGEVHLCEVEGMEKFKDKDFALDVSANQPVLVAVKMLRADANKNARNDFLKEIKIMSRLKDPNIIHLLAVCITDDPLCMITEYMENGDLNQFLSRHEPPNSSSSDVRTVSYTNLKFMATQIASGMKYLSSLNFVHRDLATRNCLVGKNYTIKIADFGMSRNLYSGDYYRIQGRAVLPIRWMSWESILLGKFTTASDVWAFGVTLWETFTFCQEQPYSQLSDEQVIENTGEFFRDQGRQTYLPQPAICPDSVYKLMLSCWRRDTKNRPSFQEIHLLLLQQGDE

Structure (SMILES)	Ki (DDR2) [µM]	Ki (DDR1) [µM]
Cc1ccc(C(=O)Nc2cccc(C(F)(F)F)c2)cc1[C@@H]1CCN(c2cnc(Nc3cnn(C)c3)nc2)C1 [Example 48, (S)-4-methyl-3-(1-(2-((1-methyl-1H-pyrazol-4-yl)amino)pyrimidin-5-yl)pyrrolidin-3-yl)-N-(3-(trifluoromethyl)phenyl)benzamide]	< 0.01	< 0.01
CNc1ncc(N2CC[C@@H](c3cc(C(=O)Nc4cccc(C(F)(F)F)c4)ccc3C)C2)cn1 [Example 49, (S)-4-methyl-3-(1-(2-(methylamino)pyrimidin-5-yl)pyrrolidin-3-yl)-N-(3-(trifluoromethyl)phenyl)benzamide]	0.01 to 0.025	< 0.01
Cc1ccc(C(=O)Nc2cccc(C(F)(F)F)c2)cc1[C@@H]1CCN(c2ccc(N)nc2)C1 [Example 50, (S)-3-(1-(6-aminopyridin-3-yl)pyrrolidin-3-yl)-4-methyl-N-(3-(trifluoromethyl)phenyl)benzamide]	0.025 to 0.06	< 0.01
CC(=O)Nc1ncc(N2CC[C@@H](c3cc(C(=O)Nc4cccc(C(F)(F)F)c4)ccc3C)C2)cn1 [Example 51, (S)-3-(1-(2-acetamidopyrimidin-5-yl)pyrrolidin-3-yl)-4-methyl-N-(3-(trifluoromethyl)phenyl)benzamide]	0.01 to 0.025	< 0.01
Cc1ccc(C(=O)Nc2cccc(C(F)(F)F)c2)cc1[C@@H]1CCN(c2cncc(-c3cnn(C)c3)c2)C1 [Example 52, (S)-4-methyl-3-(1-(5-(1-methyl-1H-pyrazol-4-yl)pyridin-3-yl)pyrrolidin-3-yl)-N-(3-(trifluoromethyl)phenyl)benzamide]	< 0.01	< 0.01
Cc1ccc(C(=O)Nc2ccc(CN3CCOCC3)c(C(F)(F)F)c2)cc1[C@@H]1CCN(c2cncc(C(N)=O)c2)C1 [Example 56, (S)-5-(3-(2-methyl-5-((4-(morpholinomethyl)-3-(trifluoromethyl)phenyl)carbamoyl)phenyl)pyrrolidin-1-yl)nicotinamide]	0.01 to 0.025	< 0.01
Cc1ccc(C(=O)Nc2cc(CN3CCCC3)cc(C(F)(F)F)c2)cc1[C@@H]1CCN(c2cncc(C(N)=O)c2)C1 [Example 57, (S)-5-(3-(2-methyl-5-((3-(pyrrolidin-1-ylmethyl)-5-(trifluoromethyl)phenyl)carbamoyl)phenyl)pyrrolidin-1-yl)nicotinamide]	< 0.01	< 0.01
Cc1ccc(C(=O)Nc2ccc(CN(C)C)c(C(F)(F)F)c2)cc1[C@@H]1CCN(c2cncc(C(N)=O)c2)C1 [Example 58, (S)-5-(3-(5-((4-((dimethylamino)methyl)-3-(trifluoromethyl)phenyl)carbamoyl)-2-methylphenyl)pyrrolidin-1-yl)nicotinamide]	0.01 to 0.025	< 0.01
